Consider six compounds from ChEMBL document CHEMBL1137170, “Synthesis, biophysical and biological evaluation of 3,6-bis-amidoacridines with extended 9-anilino substituents as potent G-quadruplex-binding telomerase inhibitors” (Bioorg Med Chem Lett, 2004).

In general, EC50 refers to the concentration that produces a half-maximal response.

The test system of one test is Nucleic Acid. The test can be described thus: Concentration required for G4-stabilisation in FRET assay. In kind it is functional.
The target in test [1] is Telomerase reverse transcriptase (Homo sapiens, UniProt O14746). The test can be described thus: Effective concentration against telomerase by TRAP.
Chain of Telomerase reverse transcriptase (O14746 whole entry): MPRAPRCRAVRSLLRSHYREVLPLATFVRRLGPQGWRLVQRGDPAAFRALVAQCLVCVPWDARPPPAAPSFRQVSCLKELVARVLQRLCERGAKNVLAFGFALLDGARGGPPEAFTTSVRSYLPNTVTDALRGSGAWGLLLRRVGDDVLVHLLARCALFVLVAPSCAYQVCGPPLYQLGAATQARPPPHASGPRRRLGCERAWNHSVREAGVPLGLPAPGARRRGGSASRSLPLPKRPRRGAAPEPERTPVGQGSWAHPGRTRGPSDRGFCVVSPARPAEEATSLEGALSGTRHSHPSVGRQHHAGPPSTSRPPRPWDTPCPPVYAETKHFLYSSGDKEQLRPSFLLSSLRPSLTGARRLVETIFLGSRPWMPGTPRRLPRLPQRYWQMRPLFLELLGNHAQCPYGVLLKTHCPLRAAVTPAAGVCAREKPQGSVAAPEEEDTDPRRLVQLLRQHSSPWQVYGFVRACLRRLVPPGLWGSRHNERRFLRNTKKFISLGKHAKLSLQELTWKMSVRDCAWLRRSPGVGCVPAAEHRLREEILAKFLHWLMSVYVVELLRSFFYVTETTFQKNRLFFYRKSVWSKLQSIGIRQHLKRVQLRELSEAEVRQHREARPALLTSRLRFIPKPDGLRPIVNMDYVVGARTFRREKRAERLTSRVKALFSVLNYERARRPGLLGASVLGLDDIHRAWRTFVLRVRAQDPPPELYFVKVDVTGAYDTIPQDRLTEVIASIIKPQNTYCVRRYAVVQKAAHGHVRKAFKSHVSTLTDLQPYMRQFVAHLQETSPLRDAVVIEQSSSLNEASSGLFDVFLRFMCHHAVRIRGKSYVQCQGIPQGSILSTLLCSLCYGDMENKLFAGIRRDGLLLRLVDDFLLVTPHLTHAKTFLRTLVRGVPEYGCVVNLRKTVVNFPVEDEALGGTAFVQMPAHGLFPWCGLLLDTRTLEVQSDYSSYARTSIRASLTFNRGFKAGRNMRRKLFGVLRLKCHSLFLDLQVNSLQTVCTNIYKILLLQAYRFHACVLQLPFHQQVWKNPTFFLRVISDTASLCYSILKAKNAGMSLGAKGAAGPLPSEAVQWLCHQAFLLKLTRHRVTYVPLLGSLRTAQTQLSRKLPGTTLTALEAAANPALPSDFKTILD

In the test on Nucleic Acid, `CN(C)c1ccc(Nc2c3ccc(NC(=O)CCN4CCCC4)cc3nc3cc(NC(=O)CCN4CCCC4)ccc23)cc1` displayed a Concentration of 0.72 µM. In test [1], this compound had an EC50 of 113 nM.
`CCN(CC)CCNC(=O)CCCCC(=O)Nc1ccc(Nc2c3ccc(NC(=O)CCN4CCCC4)cc3nc3cc(NC(=O)CCN4CCCC4)ccc23)cc1` showed a Concentration with Nucleic Acid of 0.46 µM. It took 98 nM to reach a half-maximal effect in test [1] (EC50).
Taken in the same sequence, the figures for `O=C(CCCCC(=O)N1CCOCC1)Nc1ccc(Nc2c3ccc(NC(=O)CCN4CCCC4)cc3nc3cc(NC(=O)CCN4CCCC4)ccc23)cc1` were 0.54 µM and 267 nM.
Taken in the same sequence, the figures for `O=C(CCCCC(=O)N1CCCC1)Nc1ccc(Nc2c3ccc(NC(=O)CCN4CCCC4)cc3nc3cc(NC(=O)CCN4CCCC4)ccc23)cc1` were 0.72 µM and 318 nM.
Taken in the same sequence, the figures for `CN1CCN(C(=O)CCCCC(=O)Nc2ccc(Nc3c4ccc(NC(=O)CCN5CCCC5)cc4nc4cc(NC(=O)CCN5CCCC5)ccc34)cc2)CC1` were 0.59 µM and 165 nM.
As to `CCN(CC)CCCCCCNC(=O)CCCCC(=O)Nc1ccc(Nc2c3ccc(NC(=O)CCN4CCCC4)cc3nc3cc(NC(=O)CCN4CCCC4)ccc23)cc1`, the Concentration in the test on Nucleic Acid turned out to be 0.49 µM. This compound also came in with an EC50 in test [1] of 80 nM.
